Reference: PubChem BioAssay AID2060890 (Molecular Pharmacology Branch, DTP, NCI, 2025)
pIC50: −log10 of the molar value.

Tested on: LG0703-F948-PDC complex spheroid viability
Test: Anticancer human tumor LG0703-F948-PDC patient-derived lung adenocarcinoma cell line growth inhibition [RAS]
Details: for pIC50: curve of first compound; for viability, T/C: stronger effect = lower value
How it was run: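 Agents were tested in combination matrices in half-log decrements from a top concentration at or near clinical Cmax (10 microM if undetermined). Targets were multi-cell spheroids of tumour lines plus HUVEC and MSC stromal cells.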

[1] = second compound 0.000949 µM, first compound 0.0316 µM
[2] = second compound 0.000949 µM, first compound 0.1 µM
[3] = second compound 0.000949 µM, first compound 0.316 µM
[4] = second compound 0.000949 µM, first compound 1 µM
[5] = second compound 0.000949 µM, first compound 3.16 µM
[6] = second compound 0.000949 µM, first compound 10 µM
[7] = second compound 0.003 µM, first compound 0.0316 µM
[8] = second compound 0.003 µM, first compound 0.1 µM
[9] = second compound 0.003 µM, first compound 0.316 µM
[10] = second compound 0.003 µM, first compound 1 µM
[11] = second compound 0.003 µM, first compound 3.16 µM
[12] = second compound 0.003 µM, first compound 10 µM
[13] = second compound 0.00949 µM, first compound 0.0316 µM
[14] = second compound 0.00949 µM, first compound 0.1 µM
[15] = second compound 0.00949 µM, first compound 0.316 µM
[16] = second compound 0.00949 µM, first compound 1 µM
[17] = second compound 0.00949 µM, first compound 3.16 µM
[18] = second compound 0.00949 µM, first compound 10 µM
[19] = second compound 0.03 µM, first compound 0.0316 µM
[20] = second compound 0.03 µM, first compound 0.1 µM
[21] = second compound 0.03 µM, first compound 0.316 µM
[22] = second compound 0.03 µM, first compound 1 µM
[23] = second compound 0.03 µM, first compound 3.16 µM
[24] = second compound 0.03 µM, first compound 10 µM
[25] = second compound 0.0949 µM, first compound 0.0316 µM
[26] = second compound 0.0949 µM, first compound 0.1 µM
[27] = second compound 0.0949 µM, first compound 0.316 µM
[28] = second compound 0.0949 µM, first compound 1 µM
[29] = second compound 0.0949 µM, first compound 3.16 µM
[30] = second compound 0.0949 µM, first compound 10 µM
[31] = second compound 0.3 µM, first compound 0.0316 µM
[32] = second compound 0.3 µM, first compound 0.1 µM
[33] = second compound 0.3 µM, first compound 0.316 µM
[34] = second compound 0.3 µM, first compound 1 µM
[35] = second compound 0.3 µM, first compound 3.16 µM
[36] = second compound 0.3 µM, first compound 10 µM
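Further: spheroids exposed to agents for 7 days.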
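Wherever viability, T/C is given: 100% = DMSO vehicle wells.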

Compound CC(=O)OC12COC1CC(O)C1(C)C(=O)C(O)C3=C(C)C(OC(=O)C(O)C(NC(=O)OC(C)(C)C)c4ccccc4)CC(O)(C(OC(=O)c4ccccc4)C21)C3(C)C (centres undefined) + CCn1c(-c2cc(N3CCN(C)CC3)cnc2C(C)OC)c2c3cc(ccc31)-c1csc(n1)CC(NC(=O)C1CC1C)C(=O)N1CCCC(N1)C(=O)OCC(C)(C)C2 has a pIC50 (second compound 0.000949 µM) greater than 7.50, a pIC50 (second compound 0.003 µM) greater than 7.50 and a pIC50 (second compound 0.00949 µM) greater than 7.50. For the same compound, the pIC50 (second compound 0.03 µM) was greater than 7.50, the pIC50 (second compound 0.0949 µM) was greater than 7.50 and the pIC50 (second compound 0.3 µM) was greater than 7.50. For the same compound, the viability, T/C [1] was 37.4%, the viability, T/C [2] was 33.5% and the viability, T/C [3] was 37.2%. For the same compound, the viability, T/C [4] was 30.1%, the viability, T/C [5] was 25.9% and the viability, T/C [6] was 19.9%. It also gave a viability, T/C [7] of 23.8%, a viability, T/C [8] of 17% and a viability, T/C [9] of 23%. The viability, T/C [10] was 15.7%, the viability, T/C [11] was 12.3% and the viability, T/C [12] was 14.2%. The viability, T/C [13] was 11.2%, the viability, T/C [14] was 13.6% and the viability, T/C [15] was 12.8%. It also gave a viability, T/C [16] of 12%, a viability, T/C [17] of 7.75% and a viability, T/C [18] of 7.15%. For the same compound, the viability, T/C [19] was 6.77%, the viability, T/C [20] was 7.29% and the viability, T/C [21] was 9.54%. For the same compound, the viability, T/C [22] was 7.24%, the viability, T/C [23] was 6.73% and the viability, T/C [24] was 4.63%. The viability, T/C [25] was 7.39%, the viability, T/C [26] was 5.34% and the viability, T/C [27] was 4.2%. It also gave a viability, T/C [28] of 4.62%, a viability, T/C [29] of 4% and a viability, T/C [30] of 2.6%. It also gave a viability, T/C [31] of 9.13%, a viability, T/C [32] of 5.01% and a viability, T/C [33] of 3.87%. It also gave a viability, T/C [34] of 4.26%, a viability, T/C [35] of 3.58% and a viability, T/C [36] of 2.37%.

In the case of CCC(CC)c1cc(NC2CCC(N)C2)n2nccc2n1 (centres undefined) + CCn1c(-c2cc(N3CCN(C)CC3)cnc2C(C)OC)c2c3cc(ccc31)-c1csc(n1)CC(NC(=O)C1CC1C)C(=O)N1CCCC(N1)C(=O)OCC(C)(C)C2, the pIC50 (second compound 0.000949 µM) was 6.37, the pIC50 (second compound 0.003 µM) was greater than 7.50 and the pIC50 (second compound 0.00949 µM) was greater than 7.50. It also gave a pIC50 (second compound 0.03 µM) greater than 7.50, a pIC50 (second compound 0.0949 µM) greater than 7.50 and a pIC50 (second compound 0.3 µM) greater than 7.50. The viability, T/C [1] was 72.3%, the viability, T/C [2] was 59.8% and the viability, T/C [3] was 55.2%. For the same compound, the viability, T/C [4] was 33.9%, the viability, T/C [5] was 0.67% and the viability, T/C [6] was 0.23%. For the same compound, the viability, T/C [7] was 44.1%, the viability, T/C [8] was 40.2% and the viability, T/C [9] was 36.8%. The viability, T/C [10] was 25.3%, the viability, T/C [11] was 0.46% and the viability, T/C [12] was 0.16%. For the same compound, the viability, T/C [13] was 24.1%, the viability, T/C [14] was 20.3% and the viability, T/C [15] was 17.9%. It also gave a viability, T/C [16] of 9.58%, a viability, T/C [17] of 0.42% and a viability, T/C [18] of 0.27%. The viability, T/C [19] was 13%, the viability, T/C [20] was 13.9% and the viability, T/C [21] was 13.1%. It also gave a viability, T/C [22] of 6.07%, a viability, T/C [23] of 0.25% and a viability, T/C [24] of 0.24%. It also gave a viability, T/C [25] of 9.5%, a viability, T/C [26] of 10.2% and a viability, T/C [27] of 9.16%. The viability, T/C [28] was 5.84%, the viability, T/C [29] was 0.57% and the viability, T/C [30] was 0.11%. For the same compound, the viability, T/C [31] was 8.46%, the viability, T/C [32] was 9.75% and the viability, T/C [33] was 8.9%. For the same compound, the viability, T/C [34] was 4.9%, the viability, T/C [35] was 0.23% and the viability, T/C [36] was 0.41%.
